Data from publication PMC9101373, “Design of DNA Intercalators Based on 4-Carboranyl-1,8-Naphthalimides: Investigation of Their DNA-Binding Ability and Anticancer Activity” (International Journal of Molecular Sciences, 2022).

Legend:
calf thymus DNA (ct-DNA) = test: Melting temperature (Tm) measurements of ct-DNA, thermal denaturation; assay type: binding; conditions: for ΔTm ct-DNA: r = [compound]/[ct-DNA] = 0.3, pH 7.0, 20 mM cacodylate buffer, Tm of ct-DNA alone 74 °C; for effect on thermal stability of ct-DNA (in words): thermal melting experiments
Method: The melting temperature (Tm) of DNA is defined as the temperature at which 50% of the DNA is in form of single strands forming randomly coiled structures. DNA melting is measured by the absorbance of UV light (260 nm) by the DNA solution, where the amount of UV light absorbed is proportional to the fraction of non-bonded base pairs. The majority of DNA-binding small molecules known thus far stabilize duplex DNA against heat denaturation. A high, drug-induced increase in the Tm of DNA is generally viewed as an excellent criterion to select DNA ligands and is a common feature of several anticancer drugs such as intercalators (a significant increase in Tm = 3–8 °C is observed for strong intercalation) and alkylators. The reverse situation (destabilization of DNA to facilitate its denaturation) may be an attractive option to identify therapeutic agents acting on the DNA structure.
Our study conducted Tm measurement to estimate the impact of 1,8-naphthalimides bearing the carborane cluster on DNA stabilization (Table 1, Figures S249–S253, ESI).
The measurements were performed by adding aliquots of DMSO stock solution of the tested compounds to the buffer solution (pH 7.0, 20 mM, cacodylate buffer, DMSO content of the final solution = 0.24–0.36%). The Tm curves were collected at r = 0.3 (r = [compound]/[ct-DNA]) to assure the dominant binding mode. Thermal melting curves were determined by following the absorption change at 260 nm as a function of temperature by using a GBC Cintra10 UV–vis spectrometer (Dandenong, Australia) equipped with a GBC Thermocell Peltier Power Supply (Dandenong, Australia) using a 1 cm path length cell. The absorbance of the samples was monitored at 260 nm from 30 to 90 °C (95 °C for compounds 54–61) with a heating rate of 1 °C/min. Tm values are the midpoints or the transition curves determined from the maximum of the first derivative. The ΔTm values were calculated by subtracting the Tm of the free nucleic acid from the Tm of the sample. Every Tm value reported in this study was average at least three measurements. The error in Tm was 0.5 °C.

HepG2 cells = test: In vitro cytotoxic activity, MTT assay; assay type: cell-based, human; conditions: 24 h treatment, read-out: IC50, compound concentration required to inhibit cell growth by 50%
Method: The obtained 1,8-naphthalimide–carborane conjugates were investigated for their in vitro antitumor activity by examining their cytotoxic effects using the MTT tetrazolium dye assay against the human cancer cell line HepG2 established from hepatocellular carcinoma. IC50 refers to the drug concentration (µM) required to inhibit cell growth by 50%.
The cytotoxic properties of the synthesized compounds were evaluated using the human hepatocellular carcinoma cell line HepG2 established from hepatocellular carcinoma. The HepG2 cell line was purchased from ECACC (Salisbury, UK). Cells were grown in EMEM medium (Corning®) supplemented with 10% heat-inactivated fetal bovine serum (FBS) (Corning®) and antibiotics (Corning®), at 37 °C in a 5% CO2 atmosphere. Upon reaching 80–90% confluency, cells were detached with the trypsin (Corning®) and transferred into 96-well microplates at a density of 12 × 10^3. After overnight incubation at 37 °C in a humidified atmosphere containing 5% CO2, the cells were treated for the next 24 h with compounds. The stock solution of each compound was prepared in DMSO at 10 mM. The cytotoxicity was evaluated by the MTT assay. […] Subsequently, the medium was aspirated and replaced with 3-(4,5-dimethylthiazol-2-yl)-2,5-diphenyltetrazolium bromide (MTT) dye solution (50 µL, 0.5 mg/mL). After 3 h incubation, the resulting MTT formazan crystals were dissolved in DMSO (100 µL). To ensure the complete dissolution of formazan, the plates were shaken on an orbital microplate shaker at 1000 rpm for 15 min (Thermoshaker NeoLab 7–0055, Bionovo, Legnica, Poland). The optical density of each well was then measured on a VICTOR Nivo multimode plate reader at a wavelength of 570 nm. Each experiment consisted of 6 replications of each concentration, and each experiment was repeated three times independently. The results were calculated as a percentage of control group viability. The IC50 values were determined using a non-linear regression from the plot of % viability against log dose of compounds by using GraphPad Prism 6.0 software (GraphPad, San Diego, CA, USA).

human topoisomerase IIα = molecular target: T1, human topoisomerase IIα (Homo sapiens, UniProt P11388); test: Human topoisomerase IIα relaxation assay; assay type: biochemical; conditions: for IC50: supercoiled pBR322, concentration range 0.1–100 µM, read-out: IC50, compound concentration required to inhibit the activity of this enzyme by 50%
T1 construct: purchased Inspiralis (Norwich, UK)
T1 sequence (P11388 whole entry): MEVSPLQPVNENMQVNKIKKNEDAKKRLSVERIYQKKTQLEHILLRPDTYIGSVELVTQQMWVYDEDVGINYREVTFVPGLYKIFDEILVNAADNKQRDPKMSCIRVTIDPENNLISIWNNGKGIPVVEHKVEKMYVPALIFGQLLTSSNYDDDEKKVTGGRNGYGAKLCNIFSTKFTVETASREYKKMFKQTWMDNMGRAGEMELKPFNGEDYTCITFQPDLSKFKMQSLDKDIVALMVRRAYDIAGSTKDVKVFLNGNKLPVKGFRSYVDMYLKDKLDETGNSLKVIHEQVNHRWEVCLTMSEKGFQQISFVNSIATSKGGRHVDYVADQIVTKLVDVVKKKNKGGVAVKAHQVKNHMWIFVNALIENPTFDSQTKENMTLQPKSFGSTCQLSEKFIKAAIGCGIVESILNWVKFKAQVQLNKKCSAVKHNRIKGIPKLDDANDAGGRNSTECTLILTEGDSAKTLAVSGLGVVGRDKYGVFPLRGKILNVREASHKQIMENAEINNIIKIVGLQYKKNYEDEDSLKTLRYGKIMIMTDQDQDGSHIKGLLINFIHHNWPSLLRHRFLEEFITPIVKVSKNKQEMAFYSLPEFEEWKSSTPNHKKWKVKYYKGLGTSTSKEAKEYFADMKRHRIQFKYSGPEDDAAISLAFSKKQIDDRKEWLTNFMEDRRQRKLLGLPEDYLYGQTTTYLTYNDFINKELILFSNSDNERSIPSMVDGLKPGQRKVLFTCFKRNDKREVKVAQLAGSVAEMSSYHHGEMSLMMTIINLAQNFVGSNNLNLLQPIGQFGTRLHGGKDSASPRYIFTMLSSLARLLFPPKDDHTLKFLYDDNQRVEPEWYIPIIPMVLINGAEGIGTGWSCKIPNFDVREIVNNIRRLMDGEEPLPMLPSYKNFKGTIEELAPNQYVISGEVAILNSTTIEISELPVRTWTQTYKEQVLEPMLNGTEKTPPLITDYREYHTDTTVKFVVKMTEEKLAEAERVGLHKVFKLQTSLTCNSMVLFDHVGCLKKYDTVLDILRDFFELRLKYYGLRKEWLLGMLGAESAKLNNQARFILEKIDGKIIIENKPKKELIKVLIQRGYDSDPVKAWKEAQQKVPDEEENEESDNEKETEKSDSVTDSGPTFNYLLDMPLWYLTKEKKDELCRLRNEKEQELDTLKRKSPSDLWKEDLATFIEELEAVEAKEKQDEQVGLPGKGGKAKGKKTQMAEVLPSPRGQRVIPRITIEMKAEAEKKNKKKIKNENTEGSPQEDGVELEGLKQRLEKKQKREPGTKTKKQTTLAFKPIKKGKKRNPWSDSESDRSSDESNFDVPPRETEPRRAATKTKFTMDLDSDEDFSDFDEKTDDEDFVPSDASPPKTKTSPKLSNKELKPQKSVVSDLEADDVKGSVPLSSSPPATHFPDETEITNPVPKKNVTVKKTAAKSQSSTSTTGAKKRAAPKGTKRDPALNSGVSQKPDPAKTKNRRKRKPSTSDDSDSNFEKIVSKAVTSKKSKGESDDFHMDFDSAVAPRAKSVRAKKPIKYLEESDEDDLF
Method: Therefore, we subjected these compounds to further detailed analyses of inhibitory potential within the concentration range of 0.1–100 µM (Figure S301, ESI) to calculate IC50 values. IC50 refers to the compound concentration (µM) required to inhibit the activity of the topoisomerase enzyme by 50%.
The Human Topoisomerase II-alpha Relaxation Assay Kit was purchased from Inspiralis (Norwich, UK). The Topo IIα inhibition assay was performed as described by the manufacturer. […] Next, TopoIIα (1 U) was added, and the reaction mixture was incubated at 37 °C for an additional 45 min. The reaction was terminated by addition of the STEB buffer (40 % (w/v) sucrose, Tris-HCl (100 mM, pH 8), EDTA (1 mM), bromophenol blue (0.5 mg/mL)). The products were analyzed by electrophoresis using agarose gel (1%) in TAE buffer at 70 V for 2 h, followed by ethidium bromide staining. […] The percentage of Topo-II alpha activity inhibition was calculated by densitometric quantification (Quantity One software, Bio-Rad). The occurrence of a band representing supercoiled DNA on an agarose gel indicated the inhibition of enzyme activity.

Substance	ΔTm ct-DNA (calf thymus DNA (ct-DNA)) [°C]	IC50 (HepG2 cells) [µM]	IC50 (human topoisomerase IIα) [µM]	fold less active than compound 8 (Topo IIα IC50) (human topoisomerase IIα) [fold]	effect on thermal stability of ct-DNA (in words) (calf thymus DNA (ct-DNA))
N-[2-(N-Pyrrolidinyl)ethyl]-4-[(2-(3-(1,7-dicarba-closo-dodecaborane-1-yl)propanamido)ethyl)amino]-1,8-naphthalimide [Compound 39]	1.00	9.85 ± 0.59	–	–	–
4-{1-[3-(1,7-Dicarba-closo-dodecaborane-1-yl)propyl]-1H-1,2,3-triazol-4-yl}-1,8-naphthalic anhydride [Compound 7]	0.00	136 ± 4.24	8.78	–	–
N-[2-(N-Pyrrolidinyl)ethyl]-4-[(2-(3-(1,2-dicarba-closo-dodecaborane-1-yl)propanamido)ethyl)amino]-1,8-naphthalimide [Compound 38]	1.00	10.1 ± 1.85	2.81	~5	–
N-[2-(Dimethylamino)ethyl]-4-{1-[3-(1,2-dicarba-closo-dodecaborane-1-yl)propyl]-1H-1,2,3-triazol-4-yl}-1,8-naphthalimide [Compound 8]	0.33	9.65 ± 1.02	0.58	–	–
4-[3-(1,2-Dicarba-closo-dodecaborane-1-yl)propoxy]-1,8-naphthalic anhydride [Compound 22]	−1.00	28.7 ± 3.84	–	–	destabilization
N-[2-(Dimethylamino)ethyl]-4-{1-[3-(1,7-dicarba-closo-dodecaborane-1-yl)propyl]-1H-1,2,3-triazol-4-yl}methoxy-1,8-naphthalimide [Compound 18]	0.37	5.8 ± 0.23	–	–	–
N-[2-(Dimethylamino)ethyl]-4-[3-(1,7-dicarba-closo-dodecaborane-1-yl)propoxy]-1,8-naphthalimide [Compound 26]	1.33	4.89 ± 2.59	–	–	better DNA stabilization
N-[2-(Dimethylamino)ethyl]-4-[(6-(3-(1,2-dicarba-closo-dodecaborane-1-yl)propanamido)hexyl)amino]-1,8-naphthalimide [Compound 40]	0.67	12.2 ± 0.44	–	–	–
N-[2-(Dimethylamino)ethyl]-4-[3-(1,2-dicarba-closo-dodecaborane-1-yl)propoxy]-1,8-naphthalimide [Compound 24]	1.33	11 ± 0.66	–	–	better DNA stabilization
4-{1-[3-(1,2-Dicarba-closo-dodecaborane-1-yl)propyl]-1H-1,2,3-triazol-4-yl}methoxy-1,8-naphthalic anhydride [Compound 14]	0.33	34.1 ± 2.33	–	–	–
N-[2-(Dimethylamino)ethyl]-4-{1-[3-(1,7-dicarba-closo-dodecaborane-1-yl)propyl]-1H-1,2,3-triazol-4-yl}-1,8-naphthalimide [Compound 10]	0.67	5.35 ± 1.9	–	–	–
4-{1-[3-(1,2-Dicarba-closo-dodecaborane-1-yl)propyl]-1H-1,2,3-triazol-4-yl}-1,8-naphthalic anhydride [Compound 6]	−0.33	71.2 ± 1.78	7.73	–	destabilization
N-[2-(N-Pyrrolidinyl)ethyl]-4-[3-(1,2-dicarba-closo-dodecaborane-1-yl)propoxy]-1,8-naphthalimide [Compound 25]	0.33	15.2 ± 2.02	–	–	–
N-[2-(N-Pyrrolidinyl)ethyl]-4-[(6-(3-(1,2-dicarba-closo-dodecaborane-1-yl)propanamido)hexyl)amino]-1,8-naphthalimide [Compound 42]	0.67	21.1 ± 3.34	–	–	–
N-[2-(Dimethylamino)ethyl]-4-[(6-(3-(1,7-dicarba-closo-dodecaborane-1-yl)propanamido)hexyl)amino]-1,8-naphthalimide [Compound 41]	−1.33	11.9 ± 0.92	–	–	destabilization
N-[2-(N-Pyrrolidinyl)ethyl]-4-{1-[3-(1,2-dicarba-closo-dodecaborane-1-yl)propyl]-1H-1,2,3-triazol-4-yl}-1,8-naphthalimide [Compound 9]	0.67	29.6 ± 1.89	–	–	–
N-[2-(N-Pyrrolidinyl)ethyl]-4-[3-(1,7-dicarba-closo-dodecaborane-1-yl)propoxy]-1,8-naphthalimide [Compound 27]	0.33	4.07 ± 1.19	–	–	–
N-[2-(Dimethylamino)ethyl]-4-{1-[3-(1,2-dicarba-closo-dodecaborane-1-yl)propyl]-1H-1,2,3-triazol-4-yl}methoxy-1,8-naphthalimide [Compound 16]	2.00	8.17 ± 3.72	–	–	better DNA stabilization
4-[3-(1,7-Dicarba-closo-dodecaborane-1-yl)propoxy]-1,8-naphthalic anhydride [Compound 23]	−0.33	109 ± 3.78	–	–	destabilization
N-[2-(N-Pyrrolidinyl)ethyl]-4-[(6-(3-(1,2-dicarba-closo-dodecaborane-1-yl)propanamido)hexyl)amino]-1,8-naphthalimide [Compound 43]	1.00	40 ± 3.89	–	–	–
